In US9546158B2, “2,5-substituted pyrimidines” (Grünenthal GmbH, priority 2014, dated 2017) one finds inhibition and melting point data, which are given here for 20 molecules.

In general, inhibition refers to the drop in the measured response relative to a control, in per cent. For orientation: melting point means the temperature, or range, at which the solid turns liquid.

The target in series [1] is T1, human PDE4B1 (Homo sapiens, UniProt Q07343).
T1 construct: host or cells: Sf9 cells
Nature of the series: cAMP HTRF assay to determine the activity of hPDE4B1. It is filed as biochemical. The conditions noted are these: test substrate concentration of 1 μM, read-out: Inhibition of PDE4B, Inhibition in %. How it is done: cAMP HTRF® Assay to Determine the Activity of hPDE4B1
The inhibiting effect of the compounds on the enzyme activity of human PDE4B1 was measured by the quantification of 5′-adenosine monophosphate (5′-AMP), which is formed from 3′,5′-cyclic adenosine monophosphate (cAMP). Human recombinant enzyme, expressed in Sf9 cells, and the HTRF (homogeneous time-resolved fluorescence) detection method were used in the assay.
The test compound or water (control) was mixed with the human recombinant PDE4B1 enzyme (4.8 U) in a buffer consisting of 44.4 mM tris-HCl, 5.28 mM MgCl2, 2.64 mM DTT and 0.044% Tween 20 (pH 7.8). After adding the cAMP enzyme substrate (final concentration 40 nM), the mixture was incubated for 30 minutes at room temperature. Then a fluorescence acceptor (Dye2 marked with cAMP), a fluorescence donor (anti-cAMP antibody marked with a europium cryptate) and the non-specific phosphodiesterase inhibitor IBMX (3-isobutyl-1-methylxanthine; final concentration 1 mM) were added. After 60 minutes the fluorescence transfer, which correlates with the amount of remaining cAMP, was measured with a microplate reader (Rubystar, BMG) at λex=337 nm, λem=620 nm and λem=665 nm. The enzyme activity was calculated from the quotient formed from the measured signal at 665 nm and that at 620 nm. The result was expressed as the percentage inhibition of enzyme activity of the control (without PDE4 inhibitor). The enzyme was omitted for measurement of the basal control. IC50 values (IC50=concentration causing a half-maximal inhibition of control specific activity) were derived from dose response measurements with eight different concentrations (n=2; N=1-3).
Literature: N. Saldou et al., Comparison of recombinant human PDE4 isoforms: interaction with substrate and inhibitors, Cell. Signal. Vol. 10, No. 6, 427-440, 1998
Background: TR-FRET usually uses a lanthanide donor and a delayed reading to cut background.

Series [2] has as its target T1, human PDE4B1. Nature of the series: TR-FRET assay using the LANCE Ultra cAMP kit to determine the activity of hPDE4B1. It counts as biochemical. The conditions noted are these: test substrate concentration of 10 μM, read-out: Inhibition of PDE4B, Inhibition in %. The source says: TR-FRET Assay Using the LANCE® Ultra cAMP Kit to Determine the Activity of hPDE4B1
The effects of the compounds on the activity of the human PDE4B1 was quantified by measuring the production of 5′AMP from cAMP using a human recombinant enzyme expressed in Sf9 cells and the LANCE® Ultra cAMP kit, a TR-FRET detection method from PerkinElmer. The human PDE4B1 enzyme was purchased from SignalChem Lifesciences (Catalog #P92-31BG, Lot #H296-2).
The test compound, reference compound or water (control) was mixed with the enzyme (0.96 U) in a reaction buffer containing 50 mM Tris-HCl, 50 mM MgCl2 and 5 mM DTT (pH 8.5). Thereafter, the reaction was initiated by addition of 500 nM cAMP (substrate) and the mixture was incubated for 30 minutes at room temperature. For control basal measurements, the enzyme was omitted from the reaction mixture. After 30 minutes, the reaction was stopped and diluted by a factor of 100 with the reaction buffer supplemented with 500 μM IBMX. The fluorescence donor (europium chelate-labeled cAMP) and the fluorescence acceptor (anti-cAMP antibody labeled with the ULight™ dye) were then added together with 500 μM IBMX to a 10 μl aliquot. After 60 minutes, the fluorescence transfer corresponding to the amount of residual cAMP was measured at λex=337 nm, λem=620 nm and λem=665 nm using a microplate reader (PHERAstar, BMG). The enzyme activity was determined by dividing the signal measured at 665 nm by that measured at 620 nm (ratio) multiplied by 10000. The results were expressed as percent inhibition of the control enzyme activity. IC50 values (IC50=concentration causing a half-maximal inhibition of control specific activity) were derived from dose response measurements with ten different concentrations (n=3; N=1-3).

T1 sequence (Q07343 whole entry): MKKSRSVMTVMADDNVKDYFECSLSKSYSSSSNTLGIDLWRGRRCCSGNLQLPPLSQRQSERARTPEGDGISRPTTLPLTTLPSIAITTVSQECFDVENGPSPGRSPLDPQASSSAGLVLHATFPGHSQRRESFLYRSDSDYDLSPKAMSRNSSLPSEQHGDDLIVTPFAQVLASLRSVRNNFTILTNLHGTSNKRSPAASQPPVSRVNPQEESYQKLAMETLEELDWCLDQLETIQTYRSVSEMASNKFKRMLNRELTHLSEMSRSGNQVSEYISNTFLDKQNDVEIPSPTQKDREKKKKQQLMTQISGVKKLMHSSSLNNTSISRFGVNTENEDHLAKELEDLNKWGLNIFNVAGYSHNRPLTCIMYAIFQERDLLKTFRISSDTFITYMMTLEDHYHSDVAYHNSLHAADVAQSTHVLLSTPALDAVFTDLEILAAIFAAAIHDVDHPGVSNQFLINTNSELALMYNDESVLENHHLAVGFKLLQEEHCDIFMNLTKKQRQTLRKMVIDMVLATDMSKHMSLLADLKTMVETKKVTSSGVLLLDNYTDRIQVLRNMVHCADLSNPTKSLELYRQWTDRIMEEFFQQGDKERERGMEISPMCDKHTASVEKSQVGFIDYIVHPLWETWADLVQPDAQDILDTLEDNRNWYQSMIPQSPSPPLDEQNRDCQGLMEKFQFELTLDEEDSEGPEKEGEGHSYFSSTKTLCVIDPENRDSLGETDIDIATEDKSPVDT

`O=C1CN(C(=O)c2ccc3c(C4CC4)nn(-c4ncc(-c5ccccc5)cn4)c3c2)CCN1` [Compound No. 15, 4-(3-Cyclopropyl-1-(5-phenylpyrimidin-2-yl)-1H-indazole-6-carbonyl)piperazin-2-one] gave a melting point of 175 to 179 °C. Moreover, the inhibition at 1 µM at human PDE4B1 [1] was 96%.
In turn, `O=C1CN(C(=O)c2ccc3c(C4CC4)nn(-c4ncc(-c5ccccc5F)cn4)c3c2)CCN1` [Compound No. 16, 4-(3-Cyclopropyl-1-(5-(2-fluorophenyl)pyrimidin-2-yl)-1H-indazole-6-carbonyl)piperazin-2-one] showed a melting point of 252 to 255 °C. For the same molecule, the inhibition at 1 µM on human PDE4B1 [1] worked out at 99%.
`CN1CCN(C(=O)c2ccc3c(C4CC4)nn(-c4ncc(-c5ccccc5F)cn4)c3c2)CC1=O` [Compound No. 17, 4-(3-Cyclopropyl-1-(5-(2-fluorophenyl)pyrimidin-2-yl)-1H-indazole-6-carbonyl)-1-methylpiperazin-2-one] registered a melting point of 217 to 221 °C. Besides, the inhibition at 1 µM at human PDE4B1 [1] is 95%.
For `O=C(c1cc2c(cn1)c(C1CC1)nn2-c1ncc(-c2ccccc2F)cn1)N1CCOCC1` [Compound No. 29, (3-Cyclopropyl-1-(5-(2-fluorophenyl)pyrimidin-2-yl)-1H-pyrazolo[4,3-c]pyridin-6-yl)(morpholino)methanone], in that order: 232 to 235 °C and 73%.
In turn, `O=C(c1ccc2c(C3CC3)nn(-c3ncc(-c4ccccn4)cn3)c2c1)N1CCOCC1` [Compound No. 30, (3-Cyclopropyl-1-(5-(pyridin-2-yl)pyrimidin-2-yl)-1H-indazol-6-yl)(morpholino)methanone] returned a melting point of 260 to 263 °C. In addition, the inhibition at 1 µM at human PDE4B1 [1] turned out to be 96%.
As to `CC(C)(O)c1nn(-c2ncc(-c3ccccc3F)cn2)c2cc(C(=O)N3CCOCC3)ccc12` [Compound No. 31], the melting point was in the range of 235 to 237 °C. In addition, the inhibition at 1 µM on human PDE4B1 [1] is 102%.
`CCOc1ccc(F)c(-c2cnc(-n3nc(C4CC4)c4ccc(C(=O)N(C)CC(N)=O)cc43)nc2)c1` [Compound No. 50, N-(2-Amino-2-oxoethyl)-3-cyclopropyl-1-(5-(5-ethoxy-2-fluorophenyl)pyrimidin-2-yl)-N-methyl-1H-indazole-6-carboxamide] showed a melting point of 228 to 231 °C. Also, the inhibition at 10 µM on human PDE4B1 [2] came to 95%.
For `CCOc1ccc(F)c(-c2cnc(-n3nc(C4CC4)c4ccc(C(=O)N5CCOCC5)cc43)nc2)c1` [Compound No. 51, (3-Cyclopropyl-1-(5-(5-ethoxy-2-fluorophenyl)pyrimidin-2-yl)-1H-indazol-6-yl)(morpholino)methanone], in that order: 155 to 158 °C and 103%.
The corresponding values for `CC(O)c1ccc(F)c(-c2cnc(-n3nc(C4CC4)c4ccc(C(=O)N5CCOCC5)cc43)nc2)c1` (stereo not shown) [Compound No. 52, (3-Cyclopropyl-1-(5-(2-fluoro-5-(1-hydroxyethyl)phenyl)pyrimidin-2-yl)-1H-indazol-6-yl)(morpholino)methanone] are 256 to 260 °C and 117%.
For the molecule `CC(O)c1ccc(F)c(-c2cnc(-n3nc(C4CC4)c4ccc(C(=O)N(C)CC(N)=O)cc43)nc2)c1` (stereo not shown) [Compound No. 53, N-(2-Amino-2-oxoethyl)-3-cyclopropyl-1-(5-(2-fluoro-5-(1-hydroxyethyl)phenyl)pyrimidin-2-yl)-N-methyl-1H-indazole-6-carboxamide], the melting point lay in the range of 248 to 252 °C. Further, at human PDE4B1 [2], the inhibition at 10 µM was 101%.
For `CC(C)(O)c1ccc(F)c(-c2cnc(-n3nc(C4CC4)c4ccc(C(=O)N5CCOCC5)cc43)nc2)c1` [Compound No. 54, (3-Cyclopropyl-1-(5-(2-fluoro-5-(2-hydroxypropan-2-yl)phenyl)pyrimidin-2-yl)-1H-indazol-6-yl)(morpholino)methanone], the melting point lay within 211 to 215 °C. In addition, the inhibition at 10 µM at human PDE4B1 [2] turned out to be 107%.
For `CN(CC(N)=O)C(=O)c1ccc2c(C3CC3)nn(-c3ncc(-c4cc(C(C)(C)O)ccc4F)cn3)c2c1` [Compound No. 55, N-(2-Amino-2-oxoethyl)-3-cyclopropyl-1-(5-(2-fluoro-5-(2-hydroxypropan-2-yl)phenyl)pyrimidin-2-yl)-N-methyl-1H-indazole-6-carboxamide], in that order: 177 to 180 °C and 115%.
For `C[S+]([O-])c1ccc(F)c(-c2cnc(-n3nc(C4CC4)c4ccc(C(=O)N5CCOCC5)cc43)nc2)c1` (stereo not shown) [Compound No. 56, (3-Cyclopropyl-1-(5-(2-fluoro-5-(methylsulfinyl)phenyl)pyrimidin-2-yl)-1H-indazol-6-yl)(morpholino)methanone], the melting point lay within 243 to 247 °C. On human PDE4B1 [2], the inhibition at 10 µM was found to be 106%.
For the molecule `CN(CC(N)=O)C(=O)c1ccc2c(C3CC3)nn(-c3ncc(-c4cc([S+](C)[O-])ccc4F)cn3)c2c1` (stereo not shown) [Compound No. 57], the melting point was in the range of 274 to 277 °C. Besides, at human PDE4B1 [2], the inhibition at 10 µM came to 120%.
`CS(=O)(=O)c1ccc(F)c(-c2cnc(-n3nc(C4CC4)c4ccc(C(=O)N5CCOCC5)cc43)nc2)c1` [Compound No. 58, (3-Cyclopropyl-1-(5-(2-fluoro-5-(methylsulfonyl)phenyl)pyrimidin-2-yl)-1H-indazol-6-yl)(morpholino)methanone] returned a melting point of 276 to 280 °C. Besides, at human PDE4B1 [2], the inhibition at 10 µM turned out to be 105%.
For `CN(CC(N)=O)C(=O)c1ccc2c(C3CC3)nn(-c3ncc(-c4cc(S(C)(=O)=O)ccc4F)cn3)c2c1` [Compound No. 59, N-(2-Amino-2-oxoethyl)-3-cyclopropyl-1-(5-(2-fluoro-5-(methylsulfonyl)phenyl)pyrimidin-2-yl)-N-methyl-1H-indazole-6-carboxamide], in that order: 311 to 315 °C and 96%.
The corresponding values for `CCOc1ccc(F)c(-c2cnc(-n3nc(C)c4ccc(C(=O)N(C)CC(N)=O)cc43)nc2)c1` [Compound No. 60, N-(2-Amino-2-oxoethyl)-1-(5-(5-ethoxy-2-fluorophenyl)pyrimidin-2-yl)-N,3-dimethyl-1H-indazole-6-carboxamide] are 254 to 257 °C and 100%.
In turn, `Cc1nn(-c2ncc(-c3cc(C(C)O)ccc3F)cn2)c2cc(C(=O)N(C)CC(N)=O)ccc12` (stereo not shown) [Compound No. 61, N-(2-Amino-2-oxoethyl)-1-(5-(2-fluoro-5-(1-hydroxyethyl)phenyl)pyrimidin-2-yl)-N,3-dimethyl-1H-indazole-6-carboxamide] yielded a melting point of 191 to 195 °C. For the same molecule, the inhibition at 10 µM on human PDE4B1 [2] was 103%.
`Cc1nn(-c2ncc(-c3cc(C(C)(C)O)ccc3F)cn2)c2cc(C(=O)N(C)CC(N)=O)ccc12` [Compound No. 62, N-(2-Amino-2-oxoethyl)-1-(5-(2-fluoro-5-(2-hydroxypropan-2-yl)phenyl)pyrimidin-2-yl)-N,3-dimethyl-1H-indazole-6-carboxamide]: the melting point lay within 187 to 190 °C. Further, the inhibition at 10 µM at human PDE4B1 [2] was determined as 108%.
For `Cc1nn(-c2ncc(-c3cc(S(C)(=O)=O)ccc3F)cn2)c2cc(C(=O)N(C)CC(N)=O)ccc12` [Compound No. 63, N-(2-Amino-2-oxoethyl)-1-(5-(2-fluoro-5-(methylsulfonyl)phenyl)pyrimidin-2-yl)-N,3-dimethyl-1H-indazole-6-carboxamide], in that order: 255 to 259 °C and 75%.
